Assay results as given in patent US20110086759A1, “CHEMICAL COMPOUNDS” (SYNGENTA CROP PROTECTION, INC., priority 2007, published 2011).

Key:
Solanum nigrum (SOLNI) [1] = assay: Pre-emergence biological efficacy, glasshouse pot test; format: in vivo; settings: 312 h
How it was run: (§1)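 Seeds sown in standard soil in pots, held one day in glasshouse (24/16 °C day/night, 14 h light, 65% humidity), then sprayed with aqueous solution from acetone/water (50:50) formulation with 0.5% Tween 20 at 1000 or 250 g/ha. Damage scored after 13 days (0 = none, 100 = total).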

[2] = tested on: Echinochloa crus-galli (ECHCG); assay: as above; format: in vivo; settings: 312 h
How it was run: as §1

[3] = tested on: Alopecurus myosuroides (ALOMY); assay: as above; format: in vivo; settings: 312 h
How it was run: as §1

Setaria faberi (SETFA) [4] = assay: as above; format: in vivo; settings: 312 h
How it was run: as §1

[5] = tested on: Ipomea hederaceae (IPOHE); assay: as above; format: in vivo; settings: Ipomoea hederacea, 312 h
How it was run: as §1

[6] = tested on: Amaranthus retoflexus (AMARE); assay: as above; format: in vivo; settings: Amaranthus retroflexus, 312 h
How it was run: as §1

Solanum nigrum (SOLNI) [7] = assay: Post-emergence biological efficacy, glasshouse pot test; format: in vivo; settings: 312 h
How it was run: (§2)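 Plants were sown in standard soil and grown 8 days in a glasshouse (24/16° C. day/night, 14 hours light, 65% humidity), then sprayed post-emergence at 1000 or 250 g/ha from acetone/water (50:50) with 0.5% Tween 20. Damage was scored visually after 13 days (0 = none, 100 = total).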

[8] = tested on: Echinochloa crus-galli (ECHCG); assay: as above; format: in vivo; settings: 312 h
How it was run: as §2

[9] = tested on: Alopecurus myosuroides (ALOMY); assay: as above; format: in vivo; settings: 312 h
How it was run: as §2

Setaria faberi (SETFA) [10] = assay: as above; format: in vivo; settings: 312 h
How it was run: as §2

[11] = tested on: Ipomea hederaceae (IPOHE); assay: as above; format: in vivo; settings: Ipomoea hederacea, 312 h
How it was run: as §2

[12] = tested on: Amaranthus retoflexus (AMARE); assay: as above; format: in vivo; settings: Amaranthus retroflexus, 312 h
How it was run: as §2

[13] = pre-emergence, rate 1,000 g/ha, evaluated after 13 days (100=total damage to plant; 0=no damage), read-out: Percentage damage caused to weed species, SOLNI
[14] = pre-emergence, rate 1,000 g/ha, evaluated after 13 days (100=total damage to plant; 0=no damage), read-out: Percentage damage caused to weed species, ECHCG
[15] = pre-emergence, rate 1,000 g/ha, evaluated after 13 days (100=total damage to plant; 0=no damage), read-out: Percentage damage caused to weed species, ALOMY
[16] = pre-emergence, rate 1,000 g/ha, evaluated after 13 days (100=total damage to plant; 0=no damage), read-out: Percentage damage caused to weed species, SETFA
[17] = pre-emergence, rate 1,000 g/ha, evaluated after 13 days (100=total damage to plant; 0=no damage), read-out: Percentage damage caused to weed species, IPOHE
[18] = pre-emergence, rate 1,000 g/ha, evaluated after 13 days (100=total damage to plant; 0=no damage), read-out: Percentage damage caused to weed species, AMARE
[19] = Rate 1,000 g/ha, post-emergence spray, evaluated after 13 days (100=total damage to plant; 0=no damage to plant), read-out: Percentage damage caused to weed species, post-emergence, SOLNI
[20] = Rate 1,000 g/ha, post-emergence spray, evaluated after 13 days (100=total damage to plant; 0=no damage to plant), read-out: Percentage damage caused to weed species, post-emergence, ECHCG
[21] = Rate 1,000 g/ha, post-emergence spray, evaluated after 13 days (100=total damage to plant; 0=no damage to plant), read-out: Percentage damage caused to weed species, post-emergence, ALOMY
[22] = Rate 1,000 g/ha, post-emergence spray, evaluated after 13 days (100=total damage to plant; 0=no damage to plant), read-out: Percentage damage caused to weed species, post-emergence, SETFA
[23] = Rate 1,000 g/ha, post-emergence spray, evaluated after 13 days (100=total damage to plant; 0=no damage to plant), read-out: Percentage damage caused to weed species, post-emergence, IPOHE
[24] = Rate 1,000 g/ha, post-emergence spray, evaluated after 13 days (100=total damage to plant; 0=no damage to plant), read-out: Percentage damage caused to weed species, post-emergence, AMARE

SMILES	melting point [°C]	pest or weed control at 1000 g/ha (Solanum nigrum (SOLNI) [1]; [13]) [%]	pest or weed control at 1000 g/ha [2, 14] [%]	pest or weed control at 1000 g/ha [3, 15] [%]	pest or weed control at 1000 g/ha (Setaria faberi (SETFA) [4]; [16]) [%]	pest or weed control at 1000 g/ha [5, 17] [%]	pest or weed control at 1000 g/ha [6, 18] [%]	pest or weed control at 1000 g/ha (Solanum nigrum (SOLNI) [7]; [19]) [%]	pest or weed control at 1000 g/ha [8, 20] [%]	pest or weed control at 1000 g/ha [9, 21] [%]	pest or weed control at 1000 g/ha (Setaria faberi (SETFA) [10]; [22]) [%]	pest or weed control at 1000 g/ha [11, 23] [%]	pest or weed control at 1000 g/ha [12, 24] [%]	further results
O=C(O)c1nc(C2CC2)nc(NCc2ccco2)c1Cl [Compound 1-125, 5-chloro-2-cyclopropyl-4-(furan-2-ylmethylamino)-pyrimidine-6-carboxylic acid]	150 to 152	–	–	–	–	–	–	–	–	–	–	–	–	pest or weed control at 1000 g/ha (Solanum nigrum (SOLNI) [1]; pre-emergence, 1,000 g/ha, evaluated after 13 days (100=total damage; 0=no damage), read-out: Percentage damage SOLNI): 100%; pest or weed control at 1000 g/ha ([2]; pre-emergence, 1,000 g/ha, evaluated after 13 days (100=total damage; 0=no damage), read-out: Percentage damage ECHCG): 80%; pest or weed control at 1000 g/ha ([3]; pre-emergence, 1,000 g/ha, evaluated after 13 days (100=total damage; 0=no damage), read-out: Percentage damage ALOMY): 60%; pest or weed control at 1000 g/ha (Setaria faberi (SETFA) [4]; pre-emergence, 1,000 g/ha, evaluated after 13 days (100=total damage; 0=no damage), read-out: Percentage damage SETFA): 70%; pest or weed control at 1000 g/ha ([5]; pre-emergence, 1,000 g/ha, evaluated after 13 days (100=total damage; 0=no damage), read-out: Percentage damage IPOHE): 100%; pest or weed control at 1000 g/ha ([6]; pre-emergence, 1,000 g/ha, evaluated after 13 days (100=total damage; 0=no damage), read-out: Percentage damage AMARE): 100%; pest or weed control at 1000 g/ha (Solanum nigrum (SOLNI) [7]; post-emergence, 1,000 g/ha, evaluated after 13 days (100=total damage; 0=no damage), read-out: Percentage damage caused to weed species, SOLNI): 100%; pest or weed control at 1000 g/ha ([8]; post-emergence, 1,000 g/ha, evaluated after 13 days (100=total damage; 0=no damage), read-out: Percentage damage caused to weed species, ECHCG): 70%; pest or weed control at 1000 g/ha ([9]; post-emergence, 1,000 g/ha, evaluated after 13 days (100=total damage; 0=no damage), read-out: Percentage damage caused to weed species, ALOMY): 60%; pest or weed control at 1000 g/ha (Setaria faberi (SETFA) [10]; post-emergence, 1,000 g/ha, evaluated after 13 days (100=total damage; 0=no damage), read-out: Percentage damage caused to weed species, SETFA): 90%; pest or weed control at 1000 g/ha ([11]; post-emergence, 1,000 g/ha, evaluated after 13 days (100=total damage; 0=no damage), read-out: Percentage damage caused to weed species, IPOHE): 100%; pest or weed control at 1000 g/ha ([12]; post-emergence, 1,000 g/ha, evaluated after 13 days (100=total damage; 0=no damage), read-out: Percentage damage caused to weed species, AMARE): 100%
C=Cc1c(NCc2ccco2)nc(C2CC2)nc1C(=O)OC [Compound 31-125, 2-cyclopropyl-5-ethenyl-4-(furan-2-ylmethylamino)-6-methoxycarbonylpyrimidine]	85 to 86	80	20	20	20	100	90	80	0	10	10	50	90	–
COC(=O)c1nc(-c2ccc(Cl)cc2)nc(NCc2ccco2)c1Cl [Compound 40-125, 5-chloro-2-(4-chlorophenyl)-4-(furan-2-ylmethylamino)-6-methoxycarbonylpyrimidine]	132 to 134	80	50	40	40	20	100	90	70	50	90	90	100	–

The next lines start with results.

melting point [°C]	SMILES	pest or weed control at 1000 g/ha (Solanum nigrum (SOLNI) [1]; [13]) [%]	pest or weed control at 1000 g/ha [2, 14] [%]	pest or weed control at 1000 g/ha [3, 15] [%]	pest or weed control at 1000 g/ha (Setaria faberi (SETFA) [4]; [16]) [%]	pest or weed control at 1000 g/ha [5, 17] [%]	pest or weed control at 1000 g/ha [6, 18] [%]	pest or weed control at 1000 g/ha (Solanum nigrum (SOLNI) [7]; [19]) [%]	pest or weed control at 1000 g/ha [8, 20] [%]	pest or weed control at 1000 g/ha [9, 21] [%]	pest or weed control at 1000 g/ha (Setaria faberi (SETFA) [10]; [22]) [%]	pest or weed control at 1000 g/ha [11, 23] [%]	pest or weed control at 1000 g/ha [12, 24] [%]	further results
126 to 128	NC(=O)c1nc(C2CC2)nc(NCc2ccco2)c1Cl [Compound 201-125, 6-aminocarbonyl-5-chloro-2-cyclopropyl-4-(furan-2-ylmethylamino)-pyrimidine]	70	0	20	0	40	70	90	20	20	50	70	90	–
110 to 112	COC(=O)c1nc(Cl)nc(NCc2ccco2)c1Cl [Compound 207-48, 2,5-dichloro-4-(furan-2-ylmethylamino)-6-methoxy carbonylpyrimidine]	40	10	20	20	40	30	60	10	10	10	30	30	–
